Assay results reported in article PMC7938888, “Antidepressant drugs act by directly binding to TRKB neurotrophin receptors” (Cell, 2021).

Assays:
[1] = target: T1, GFP-TRKB (Mus musculus, UniProt P15209); assay: Microscale thermophoresis (MST) in lysates of GFP-TRKB expressing HEK293T cells; type: binding; conditions: CHOL 10–100 μM, 15 min, HEK293T cell lysates; read-out: affinity of direct interaction with GFP-TRKB (MST)
T1 construct: wild-type GFP-tagged full length TRKB or the GFP-tagged Y433F TRKB mutant; host or cells: HEK293T
Procedure: Microscale Thermophoresis - MST - experiments were performed using Monolith NT.115 (Blue/Red) instrument (NanoTemper Technologies GmbH, Germany). The cell lysates of HEK293T cells expressing GFP-TRKB were used as a source of fluorescently labeled TRKB. HEK293T cells were transfected with GFP-fused TRKB as described and lysed 24h after transfection. […] The lysates of non-transfected HEK293T cells were used to evaluate background fluorescence, which appeared to be undetectable in current MST set up. […] The measurements were done in premium coated capillaries (NanoTemper Technologies GmbH, MO-K025) using LED source with 470nm and 50% infrared-laser power at 25°C. Hill model was used to evaluate binding affinity, each data point represents mean ΔFnorm values from four independent experiments. The bound fraction of the GFP-TRKB was determined and the fitting was performed using the Hill model method incorporated by the MO Affinity Analysis v2.3 software (NanoTemper Technologies).

[2] = tested on: surface TRKB; assay: Surface TRKB ELISA in primary cortical neurons; type: cell-based, rat; conditions: primary cortical neurons
Procedure: The surface levels of TRKB were also determined by ELISA ([Zheng et al., 2008]). Briefly, the MG87.TRKB cells or primary cortical cells from rat or mouse embryos, cultivated in clear bottom 96-well plates (ViewPlate 96, Perkin Elmer), were washed with ice-cold PBS and fixed with 100μl of 4% PFA per well. After washing with PBS and blocking with PBS containing 5% nonfat dry milk and 5% BSA, the samples were incubated with primary anti-TRKB antibody (R&D Systems, #AF1494, 1:1000 in blocking buffer) or anti-GluR1 subunit of AMPA receptors (CST, #8850, 1:2000 in blocking buffer) ON at 4°C. Following washing, the samples were incubated with HRP-conjugated anti-goat or anti-rabbit IgG (1:5000 in blocking buffer) for 1h at RT. The cells were washed 4x with 200μl of PBS for 10 min each. Finally, the chemiluminescent signal generated by reaction with ECL was analyzed in a plate reader.

T1 sequence (P15209 32-821): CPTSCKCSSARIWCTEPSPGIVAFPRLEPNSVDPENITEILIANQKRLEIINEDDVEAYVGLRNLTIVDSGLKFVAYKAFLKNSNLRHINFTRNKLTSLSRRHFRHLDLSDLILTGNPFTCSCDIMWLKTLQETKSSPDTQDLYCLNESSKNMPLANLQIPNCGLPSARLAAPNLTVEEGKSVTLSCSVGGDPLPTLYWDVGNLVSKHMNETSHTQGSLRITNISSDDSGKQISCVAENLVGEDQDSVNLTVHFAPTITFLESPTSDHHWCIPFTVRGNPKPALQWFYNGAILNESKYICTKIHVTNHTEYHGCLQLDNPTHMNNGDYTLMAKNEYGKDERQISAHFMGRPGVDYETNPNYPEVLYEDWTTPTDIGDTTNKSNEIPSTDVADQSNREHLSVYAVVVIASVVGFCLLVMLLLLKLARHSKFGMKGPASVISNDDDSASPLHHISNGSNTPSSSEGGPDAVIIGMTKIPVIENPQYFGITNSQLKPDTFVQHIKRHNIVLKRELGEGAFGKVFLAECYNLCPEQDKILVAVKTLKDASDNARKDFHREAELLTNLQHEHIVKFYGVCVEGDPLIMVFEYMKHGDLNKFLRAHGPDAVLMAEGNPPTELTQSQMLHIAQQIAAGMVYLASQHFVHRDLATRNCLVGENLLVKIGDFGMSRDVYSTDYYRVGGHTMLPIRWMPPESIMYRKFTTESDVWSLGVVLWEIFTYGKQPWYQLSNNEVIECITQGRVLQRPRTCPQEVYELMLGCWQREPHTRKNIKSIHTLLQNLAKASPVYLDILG

| Kd [1] [µM] | SMILES | surface expression of TRKB [2] |
| --- | --- | --- |
| ~20 | CC(C)CCC[C@@H](C)[C@H]1CC[C@H]2[C@@H]3CC=C4C[C@@H](O)CC[C@]4(C)[C@H]3CC[C@]12C [CHOL, cholesterol] | – |
| – | CNCCC(Oc1ccc(C(F)(F)F)cc1)c1ccccc1 (centres unmarked) [FLX, fluoxetine] | increased the surface expression of TRKB |
